In patent US20230295292A1, “METHODS OF TREATING CANCERS AND ENHANCING EFFICACY OF GPRC5DXCD3 BISPECIFIC ANTIBODIES” (Janssen Biotech, Inc., priority 2021, published 2023):

Tests used:
[1] = system: relapsed or refractory multiple myeloma; experiment: Phase 1b TRIMM-2 study: best response by IMWG criteria, investigator assessment
Description: A phase 1b, open-label, multicenter, multi-cohort study of talquetamab in combination with subcutaneous (SC) dosing regimens of daratumumab administered to adult subjects with multiple myeloma was carried out. Two treatment combinations also included pomalidomide (and concomitant dexamethasone for at least the initial cycles). In the pomalidomide-containing treatment combinations, dexamethasone administration was required through the first 3 full immunomodulatory agent (IMiD)containing cycles to enhance IMiD-driven antimyeloma effects and serve as pretreatment medication for daratumumab and talquetamab. An overall aim of the study was to evaluate the safety of daratumumab in combination with talquetamab with or without pomalidomide (and concomitant dexamethasone at least in the initial cycles), and to evaluate preliminary antitumor activity. Safety was monitored by a Study Evaluation Team (SET).
The treatments were administered in 28-day cycles. Daratumumab was administered to all subjects by SC injection at a dose of 1800 mg as follows: weekly in Cycles 1-2, every 2 weeks (Q2W) in Cycles 3-6, and every 4 weeks thereafter. Note that a recombinant human hyaluronidase PH20 (rHuPH20) was used to decrease the injection volume required, facilitating the SC administration of daratumumab.
Daratumumab SC (Dara) was administered in combination with different dosage levels of talquetamab (Tal), including Dara 1800 mg + Tal 60 µg/kg SC weekly, Dara 1800 mg + Tal 400 µg/kg SC weekly. Dara 1800 mg + Tal 400 µg/kg SC biweekly starting Cycle 3 Day 1 (Tal 400 µg/kg SC weekly in Cycles 1-2), and Dara 1800 mg + Tal 800 µg/kg SC biweekly. Some subjects in the Dara 1800 mg + Tal 400 µg/kg SC weekly cohort switched to Tal 800 µg/kg biweekly SC dosing after Cycle 3 Day 1. Except for the 60 µg/kg talquetamab SC weekly cohort in which step-up dosing began on Cycle 1 Day 9, step-up doses for talquetamab began on Cycle 1 Day 2. When daratumumab and talquetamab were administered on the same day, daratumumab was administered first. Step-up Dose 1 of talquetamab was administered at least 20 hours after SC daratumumab. Subsequent step-up dose(s), if applicable, and first treatment dose of talquetamab were administered approximately 3 hours after SC daratumumab. Subsequent treatment doses of talquetamab was administered approximately 1 hour after SC daratumumab (when both study drugs are administered on the same day).
Disease evaluations would be performed by a central laboratory (additional samples may be collected for analysis by the local laboratory) until disease progression. […] Subjects that meet all other IMWG criteria for CR, and whose positive IFE is confirmed to be daratumumab interference, are considered complete responders. For subjects with light chain multiple myeloma, both serum and urine IFE and serum FLC assay were performed every 4 weeks. Additional serum samples may be utilized to monitor for potential daratumumab interference with the IFE and response adjudicated per IMWG-based response criteria. Quantitative immunoglobulin (QIg, e.g., IgG, IgA, IgM, IgE, and IgD), M-protein by electrophoresis (SPEP), FLC and IFE measurements in serum and urine and serum β-microglobulin were analyzed by the central laboratory. Disease progression based on one of the laboratory tests alone must be confirmed by at least 1 repeat investigation performed 1 to 3 weeks later. Disease evaluations would continue beyond relapse from CR until disease progression was confirmed. Serum and urine IFE and serum FLC assays would be performed at screening and thereafter when a CR or sCR is suspected (when serum or 24-hour urine M-protein electrophoresis [by SPEP or UPEP] are 0 or non-quantifiable). Development of hypercalcemia (corrected serum calcium >11 mg/dL) may indicate disease progression or relapse if it is not attributable to any other cause.

[2] = Phase 1b TRIMM-2 study: pharmacokinetics (serum concentrations); format: in vivo, human; conditions: in the presence of daratumumab
Description: Blood and serum or plasma samples were collected for assessments of pharmacokinetics and immunogenicity (e.g., antibodies to daratumumab, rHuPH20, or talquetamab). Selection of the dose regimen (dose level and frequency) for dose expansion was determined based on the pharmacokinetic and pharmacodynamic information obtained during dose escalation. A sample for the pharmacokinetic and immunogenicity analysis was collected at scheduled time and any time a suspected IRR or CRS event (in case of a CRS event, samples were collected at onset, 24 hours and 72 hours) was observed during the study.
Each serum sample was evenly divided into 3 aliquots (1 for pharmacokinetics and immunogenicity of daratumumab, 1 for pharmacokinetics and immunogenicity of talquetamab, and 1 backup). […] For the pharmacokinetics analysis, serum samples were analyzed to determine concentrations of daratumumab and talquetamab using validated, specific, and sensitive assay methods. Pharmacokinetic parameters include, but are not limited to, area under the curve (AUC)(0-t), AUCtau, Cmax, and Tmax would be calculated if sufficient data were available for estimation. […] For the rHuPH20 immunogenicity assessments, plasma samples were screened for antibodies binding to rHuPH20 and were assessed in confirmatory and titer assays as necessary.

[3] = system: T cells; experiment: Phase 1b TRIMM-2 study: biomarker / pharmacodynamic assessments (T cells, cytokines); format: in vivo, human
From the text: BM-localized MM cells were identified and analysed for cell surface marker expression levels by staining 1.0×10^6 cells/mL with HuMax-003 (CD38) FITC (this antibody binds to an epitope distinct from the epitope bound by daratumumab, Janssen Pharmaceuticals), CD138 PE, CD56 PC7, CD45 Krome Orange (all Beckman Coulter), CD269 (BCMA) APC (Biolegend), CD274 (PD-L1) BV421 and CD19 APC-H7 (both Becton Dickinson). BM or PB immune cell subsets were identified and analysed for cell surface marker expression levels by staining 1.0×10^6 cells/mL with CD45 Krome Orange, CD56 PC7 (both Beckman Coulter), CD14 APC-H7, CD19 APC-H7, CD3 V450, CD4 APC-H7 or PE, CD8 FITC, CD45-RA APC. CD127 PE.Cy7, CD62L PE, CD274 […] BV421, CD16 APC, HLA-DR APC-H7 (all Becton Dickinson) and CD25 PE (Dako) or with CD4 BUV395 (BD Biosciences), CD8 BUV737 (BD
Biosciences), PD-1 BV421 (BD Biosciences), TIM-3 BV650 (BD Biosciences), CD3 BV711 (BD Biosciences), CD45RO BV786 (BD Biosciences). CD38 Humab-003-FITC (Janssen). CD45RA PerCP-Cy5.5 (BD Biosciences). HLA-DR PE (BD Biosciences), LAG-3 PE-eF610 (ThermoFisher), CD25 PE-Cy7 (BD Biosciences), CCR7 AF647 (BD Biosciences), CD127 APC-eF780 (ThermoFisher). All BM samples were analysed within 24 hours from the time the sample was collected.
Flow cytometry was performed using a 7-laser LSRFORTESSA (Becton Dickinson). Fluorescent labeled beads (CS&T beads, Becton Dickinson) were used daily to monitor the performance of the flow cytometer and verify optical path and stream flow. […] Compensation beads were used to determine spectral overlap, and compensation was automatically calculated using Diva software. Flow cytometry data were analyzed using FACS Diva software.
Cytokines [interferon-gamma (IFN-γ), interleukin (IL)-2, IL-6, IL-8, IL-10, and tumor necrosis factor-alpha (TNF-α)] in the cell culture supernatants were analyzed using V-Plex proinflammatory Panel 1 Human Kit (Meso Scale Diagnostics), according to the manufacturer’s protocol. […]

[4] = Tal 400 µg/kg (SC3 and SC6) + 800 µg/kg (SC7 and SC15) with Dara 1800 mg, 56 response evaluable subjects
[5] = Tal Total (all Tal cohorts with Dara, with or without Pom), n=108 evaluable

talquetamab
CR or better (sCR + CR) ([1]; Overall Total, n=186 evaluable): 46 (24.7%) | Clinical benefit (Overall response + MR) ([1]; Overall Total, n=186 evaluable): 146 (78.5%) | Complete response (CR) ([1]; Overall Total, n=186 evaluable): 28 (15.1%) | Minimal response (MR) ([1]; Overall Total, n=186 evaluable): 0 | Not evaluable (NE) ([1]; Overall Total, n=186 evaluable): 1 (1.2%) | Overall response (sCR+CR+VGPR+PR) ([1]; Overall Total, n=186 evaluable): 146 (78.5%) | Partial response (PR) ([1]; Overall Total, n=186 evaluable): 22 (11.8%) | Progressive disease (PD) ([1]; Overall Total, n=186 evaluable): 11 (5.9%) | Stringent complete response (sCR) ([1]; Overall Total, n=186 evaluable): 18 (9.7%) | VGPR or better (sCR + CR + VGPR) ([1]; Overall Total, n=186 evaluable): 124 (66.7%) | Very good partial response (VGPR) ([1]; Overall Total, n=186 evaluable): 78 (41.9%) | Very good partial response (VGPR), Unconfirmed ([1]; Overall Total, n=186 evaluable): 11 | CR or better (sCR + CR) [1, 4]: 16 (28.6%) | Clinical benefit (Overall response + MR) [1, 4]: 45 (80.4%) | Complete response (CR) [1, 4]: 9 (16.1%) | Complete response (CR), Unconfirmed [1, 4]: 3 | Minimal response (MR) [1, 4]: 0 | Not evaluable (NE) [1, 4]: 0 | Overall response (sCR+CR+VGPR+PR) [1, 4]: 45 (80.4%) | Partial response (PR) [1, 4]: 9 (16.1%) | Partial response (PR), Unconfirmed [1, 4]: 4 | Progressive disease (PD) [1, 4]: 3 (5.4%) | Stringent complete response (sCR) [1, 4]: 7 (12.5%) | Stringent complete response (sCR), Unconfirmed [1, 4]: 0 | VGPR or better (sCR + CR + VGPR) [1, 4]: 36 (64.3%) | Very good partial response (VGPR) [1, 4]: 20 (35.7%) | Very good partial response (VGPR), Unconfirmed [1, 4]: 5 | CR or better (sCR + CR) [1, 5]: 28 (25.9%) | Clinical benefit (Overall response + MR) [1, 5]: 89 (82.4%) | Complete response (CR) [1, 5]: 14 (13.0%) | Minimal response (MR) [1, 5]: 0 | Not evaluable (NE) [1, 5]: 0 | Overall response (sCR+CR+VGPR+PR) [1, 5]: 89 (82.4%) | Partial response (PR) [1, 5]: 18 (16.7%) | Progressive disease (PD) [1, 5]: 4 (3.7%) | Stringent complete response (sCR) [1, 5]: 14 (13.0%) | VGPR or better (sCR + CR + VGPR) [1, 5]: 71 (65.7%) | Very good partial response (VGPR) [1, 5]: 43 (39.8%) | Very good partial response (VGPR), Unconfirmed [1, 5]: 13 | Pharmacokinetic profile of talquetamab [2]: consistent with the profile of observed in the phase 1 talquetamab monotherapy | Frequency of CD38+ T cells ([3]; FIG. 4, following talquetamab dosing in the presence of daratumumab 1800 mg): increase | CD38+ CD8+ T cells ([3]; after the initial doses of talquetamab despite concurrent daratumumab dosing): induction

daratumumab: anti-CD38 monoclonal antibody approved for MM treatment; HC SEQ ID NO: 13, LC SEQ ID NO: 14; given SC with rHuPH20 [reference compound]
Proportion of CD38+/CD8+ T cells ([3]; after initial daratumumab dosing on C1D1): declined
